Measurements published in patent US20150315241A1, “Antibiotic Peptides” (priority 2007, published 2015).
Values after ≈ are worked out from the molar mass of the structure shown. Read-outs that look alike come from different tables or passages of the source. Where a SMILES comes first, the peptide text is derived from it. Bridges are numbered along the chain shown (N, C = ends). Roman numbers before positions name the chains, in order. [ ]: non-standard residue; d: D form. Orn = NCCC[C@H](N)C(=O)O; Dab = NCC[C@H](N)C(=O)O

Experiments:
in vitro = in vitro ADME, mouse
Description: Serum stability studies were carried out in duplicate as described by Hoffmann et al.. Briefly, 28 μL of an aqueous peptide or peptidomimetics solution (0.5 mg/mL) was added to 0.2 mL freshly pooled 25% mouse serum (Sigma-Aldrich GmbH, Taufkirchen, Germany) in water. The mixtures were incubated at 37° C. under gentle stirring. The proteins were precipitated with 40 μL of 15% aqueous TCA after incubation times of 0, 0.5, 1, 2, 4 and 6 h at 0° C. for 20 min before centrifuged (13500×G) at 4° C. for 5 min. The supernatants of all samples (240 μL) were neutralized with 1 mol/L aqueous NaOH and immediately stored at −20° C. The supernatants were analyzed by RP-HPLC using a linear acetonitrile gradient as described above with 0.1% TFA as ion pair reagent. Collected fractions of the main peaks were further analyzed by tandem mass spectrometry (MALDI-TOF/TOF-MS, 4700 Proteomics Analyzer, Applied Biosystems GmbH, Weiterstadt, Germany) in positive ion reflector mode using α-cyanohydroxycinnamic acid (50% CH3CN in 0.1% aqueous TFA) as matrix to identify the degradation products of the peptides and peptidomimetics, i.e., metabolites, at the different time points. Serum control samples consisted of 200 μL of pooled 25% mouse serum in water, which were also precipitated with 40 μL 15% aqueous TCA, as described before. Peptide reference samples consisted of 28 μL of the peptide stock solution diluted in 0.2 mL water and 40 μL of 15% aqueous trichloroacetic acid (TCA).

E. coli 45849 = assay: Growth inhibition assay (MIC); type: cell-based, Escherichia coli
How it was run: (§1)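 Two-fold serial broth microdilution in 1% TSB, final peptide 125 μg/mL down to 60 ng/mL. Inoculum from overnight nutrient-broth cultures adjusted to 5×10^6 CFU/mL. After 20 hrs at 37° C., growth was read as absorbance at 595 nm; triplicates, sterile water as negative control.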

S. typhi S5 = type: cell-based, Salmonella typhi; details: S5, 20 h
How it was run: as §1

E. coli D31 = type: cell-based, Escherichia coli; details: D31, 20 h
How it was run: as §1

K. Pneumonia 123132 = assay: Growth inhibition assay (MIC); type: cell-based, Klebsiella pneumoniae
How it was run: as §1

[1] = system: K. Pneumonia K6, ATCC 700603; assay: Growth inhibition assay (MIC); type: cell-based, Klebsiella pneumoniae; details: multidrug resistant strain; 1% TSB, 37° C., 20 hrs
How it was run: as §1

[2] = system: S. enterica subsp. Enterica serovar. typhi G10215 ATCC 700408; type: cell-based, Salmonella enterica; details: ATCC 700408, 20 h
How it was run: as §1

[3] = system: R. radiobatter ATCC 15955; assay: Growth inhibition assay (MIC); type: cell-based, Rhizobium radiobacter
How it was run: as §1

E. coli BL 21 AI = assay: Growth inhibition assay (MIC); type: cell-based, Escherichia coli; details: 1% TSB, 37° C., 20 hrs
How it was run: (§2)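 Two-fold serial dilution in 1% TSB, final 125 μg/mL to 60 ng/mL; inoculum 5×10^6 CFU/mL (before 1:1 mixing with peptide). Incubated 20 hrs at 37° C., growth read as absorbance at 595 nm, in triplicate with sterile water as negative control.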

M. luteus ATCC 10240 = type: cell-based, Micrococcus luteus
How it was run: as §2

E. coli 10233 = type: cell-based, Escherichia coli
How it was run: as §2

E. coli 1103 = type: cell-based, Escherichia coli
How it was run: as §2

K. pneumonia 681 = type: cell-based, Klebsiella pneumoniae
How it was run: as §2

B. subtilis 347 = type: cell-based, Bactillus subtillis
How it was run: as §2

[4] = 25% aqueous mouse serum, 37° C., read-out: Half-life time
[5] = multidrug resistant strain, 1% TSB, 37° C., 20 hrs

SMILES	half-life at 0.061 mg/mL (in vitro; [4]) [min]	MIC E. coli 45849 (E. coli 45849; 45849, 20 h) [µg/mL]	MIC S. typhi S5 (S. typhi S5) [µg/mL]	MIC E. coli D31 (E. coli D31) [µg/mL]	MIC K. Pneumonia 123132 (K. Pneumonia 123132; 20 h) [µg/mL]	MIC K. Pneumonia K6, ATCC 700603 [1] [µg/mL]	MIC S. enterica subsp. Enterica serovar. typhi G10215 ATCC 700408 [2] [µg/mL]	MIC R. radiobatter ATCC 15955 ([3]; ATCC 15955, 20 h) [µg/mL]	MIC E. coli BL 21 AI (E. coli BL 21 AI) [µg/mL]	MIC M. luteus ATCC 10240 (M. luteus ATCC 10240; 1% TSB, 37° C., 20 hrs) [µg/mL]	MIC E. coli 10233 (E. coli 10233; 1% TSB, 37° C., 20 hrs) [µg/mL]	MIC E. coli 1103 (E. coli 1103; 1% TSB, 37° C., 20 hrs) [µg/mL]	MIC K. pneumonia 681 (K. pneumonia 681; 1% TSB, 37° C., 20 hrs) [µg/mL]	MIC B. subtilis 347 (B. subtilis 347; 1% TSB, 37° C., 20 hrs) [µg/mL]	MIC E. coli 45849 (E. coli 45849; [5]) [µg/mL]	MIC K. Pneumonia 123132 (K. Pneumonia 123132; [5]) [µg/mL]	MIC M. luteus ATCC 10240 (M. luteus ATCC 10240; ATCC 10240, 20 h) [µg/mL]	MIC E. coli 10233 (E. coli 10233; 10233, 20 h) [µg/mL]	MIC K. pneumonia 681 (K. pneumonia 681; 20 h) [µg/mL]	MIC B. subtilis 347 (B. subtilis 347; 347, 20 h) [µg/mL]	further results
CC[C@H](C)[C@H](NC(=O)[C@H](Cc1ccc(O)cc1)NC(=O)[C@@H](NC(=O)[C@@H]1CCCN1C(=O)[C@H](CCCNC(=N)N)NC(=O)[C@H](CC(N)=O)NC(=O)[C@H](CC(N)=O)NC(=O)[C@@H](N)CCCN)C(C)C)C(=O)N1CCC[C@H]1C(=O)N[C@@H](CCCN)C(=O)N1CCC[C@H]1C(=O)N[C@@H](CCCNC(=N)N)C(=O)N1CCC[C@H]1C(=O)N1CCC[C@H]1C(=O)N[C@@H](Cc1c[nH]cn1)C(=O)N1CCC[C@H]1C(=O)N[C@@H](CCCNC(=N)N)C(=O)N[C@@H](CC(C)C)C(N)=O [compound 12] (H-[Orn]NNRPVYIP[Orn]PRPPHPRL-NH2)	15	1 (≈ 0.465 µM)	<0.5	4 (≈ 1.86 µM)	4 (≈ 1.86 µM)	4 (≈ 1.86 µM)	<0.25	0.65 (≈ 0.302 µM)	0.98 (≈ 0.456 µM)	1.95 (≈ 0.907 µM)	0.98 to 1.95	3.91 (≈ 1.82 µM)	7.81 (≈ 3.63 µM)	62.5 (≈ 29.1 µM)	–	–	–	–	–	–	–
CC[C@H](C)[C@H](NC(=O)[C@H](Cc1ccc(O)cc1)NC(=O)[C@@H](NC(=O)[C@@H]1CCCN1C(=O)[C@H](CCCNC(=N)N)NC(=O)[C@H](CC(N)=O)NC(=O)[C@H](CC(N)=O)NC(=O)[C@H](CCCN)NC(C)=O)C(C)C)C(=O)N1CCC[C@H]1C(=O)N[C@@H](CCCN)C(=O)N1CCC[C@H]1C(=O)N[C@@H](CCCNC(=N)N)C(=O)N1CCC[C@H]1C(=O)N1CCC[C@H]1C(=O)N[C@@H](Cc1c[nH]cn1)C(=O)N1CCC[C@H]1C(=O)N[C@@H](CCCNC(=N)N)C(=O)N[C@@H](CC(C)C)C(N)=O [compound 13] (Ac-[Orn]NNRPVYIP[Orn]PRPPHPRL-NH2)	15	2 (≈ 0.912 µM)	<0.5	4 (≈ 1.82 µM)	8 (≈ 3.65 µM)	8 (≈ 3.65 µM)	<0.25	<0.16	1.95 (≈ 0.889 µM)	1.95 (≈ 0.889 µM)	1.95 (≈ 0.889 µM)	3.81 (≈ 1.74 µM)	3.91 (≈ 1.78 µM)	125 (≈ 57 µM)	–	–	–	–	–	–	degradation pathway in serum (N-/C-terminal) (in vitro; 25% mouse serum, metabolites by MALDI-MS): not degraded N-terminally, but only from the C-terminal end
CC[C@H](C)[C@H](NC(=O)[C@@H]1CCCN1C(=O)[C@H](CCCNC(=N)N)NC(=O)[C@@H]1CCCN1C(=O)[C@H](Cc1c[nH]cn1)NC(=O)[C@@H]1CCCN1C(=O)[C@@H]1CCCN1C(=O)[C@H](CCCNC(=N)N)NC(=O)[C@@H]1CCCN1C(=O)[C@H](CCCNC(=N)N)NC(=O)[C@@H]1CCCN1C(=O)[C@@H](NC(=O)[C@H](Cc1ccc(O)cc1)NC(=O)[C@@H](NC(=O)[C@@H]1CCCN1C(=O)[C@H](CCCNC(=N)N)NC(=O)[C@H](CC(N)=O)NC(=O)[C@H](CC(N)=O)NC(=O)[C@@H](N)CCCN)C(C)C)[C@@H](C)CC)C(=O)N[C@@H](CCCNC(=N)N)C(=O)N[C@H](C(=O)O)C(C)C [compound 23] (H-[Orn]NNRPVYIPRPRPPHPRPIRV-OH)	240	–	8 (≈ 3.14 µM)	64 (≈ 25.1 µM)	–	32 (≈ 12.6 µM)	8 (≈ 3.14 µM)	–	1.95 to 3.91	–	–	–	–	–	8 (≈ 3.14 µM)	16 (≈ 6.28 µM)	0.12 (≈ 0.0471 µM)	3.91 (≈ 1.54 µM)	62.5 (≈ 24.5 µM)	125 (≈ 49.1 µM)	MIC R. radiobatter ATCC 15955 [3, 5]: 0.65 µg/mL (≈ 0.255 µM); MIC E. coli 1103 (E. coli 1103; 1103, 20 h): 7.81 µg/mL (≈ 3.07 µM)
CC[C@H](C)[C@H](NC(=O)[C@H](Cc1ccc(O)cc1)NC(=O)[C@@H](NC(=O)[C@@H]1CCCN1C(=O)[C@H](CCCNC(=N)N)NC(=O)[C@H](CC(N)=O)NC(=O)[C@H](CC(N)=O)NC(=O)[C@H](CCCN)NC(C)=O)C(C)C)C(=O)N1CCC[C@H]1C(=O)N[C@@H](CCCNC(=N)N)C(=O)N1CCC[C@H]1C(=O)N[C@@H](CCCNC(=N)N)C(=O)N1CCC[C@H]1C(=O)N1CCC[C@H]1C(=O)N[C@@H](Cc1c[nH]cn1)C(=O)N1CCC[C@H]1C(=O)N[C@@H](CCCNC(=N)N)C(=O)N[C@@H](CC(C)C)C(=O)NCC[C@H](NC(=O)[C@H](CC(C)C)NC(=O)[C@H](CCCNC(=N)N)NC(=O)[C@@H]1CCCN1C(=O)[C@H](Cc1c[nH]cn1)NC(=O)[C@@H]1CCCN1C(=O)[C@@H]1CCCN1C(=O)[C@H](CCCNC(=N)N)NC(=O)[C@@H]1CCCN1C(=O)[C@H](CCCNC(=N)N)NC(=O)[C@@H]1CCCN1C(=O)[C@@H](NC(=O)[C@H](Cc1ccc(O)cc1)NC(=O)[C@@H](NC(=O)[C@@H]1CCCN1C(=O)[C@H](CCCNC(=N)N)NC(=O)[C@H](CC(N)=O)NC(=O)[C@H](CC(N)=O)NC(=O)[C@H](CCCN)NC(C)=O)C(C)C)[C@@H](C)CC)C(=O)O [compound 83] (I: Ac-[Orn]NNRPVYIPRPRPPHPRL[Dab]-OH / II: Ac-[Orn]NNRPVYIPRPRPPHPRL; amide I:19-II:C)	–	–	4 (≈ 0.878 µM)	2 (≈ 0.439 µM)	–	8 (≈ 1.76 µM)	4 (≈ 0.878 µM)	–	1.95 (≈ 0.428 µM)	–	–	–	–	–	8 (≈ 1.76 µM)	8 (≈ 1.76 µM)	1.95 (≈ 0.428 µM)	31.25 (≈ 6.86 µM)	125 (≈ 27.5 µM)	15.6 (≈ 3.43 µM)	half-life (in vitro; [4]): 15 min
